molecular target: T1, Dual specificity protein phosphatase 1 (Homo sapiens, UniProt P28562); assay: DTT effect on MKP-1 inhibitor potency – biochemical, DTT added, probe assessment, dose response (AID 558)
T1 sequence (P28562 whole entry): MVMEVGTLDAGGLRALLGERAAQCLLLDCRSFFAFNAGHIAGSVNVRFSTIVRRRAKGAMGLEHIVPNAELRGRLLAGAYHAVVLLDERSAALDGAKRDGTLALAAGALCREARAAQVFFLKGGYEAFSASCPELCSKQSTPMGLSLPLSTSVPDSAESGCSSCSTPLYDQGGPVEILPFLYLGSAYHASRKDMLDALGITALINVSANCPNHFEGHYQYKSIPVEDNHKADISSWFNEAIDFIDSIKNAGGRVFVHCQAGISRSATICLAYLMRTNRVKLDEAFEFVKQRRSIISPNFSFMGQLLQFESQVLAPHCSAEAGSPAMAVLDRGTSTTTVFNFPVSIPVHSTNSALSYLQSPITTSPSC

Row | Compound | IC50
1 | O=C1Nc2ccccc2SC(c2ccccc2)C1O (configuration not stated) [3-hydroxy-2-phenyl-2,3-dihydro-1,5-benzothiazepin-4(5H)-one] | 35.5 µM
2 | O=C1c2ccccc2-c2onc3ccc(NCCCn4ccnc4)c1c23 [SMR000044769] | 35.2 µM
3 | Cc1nc2cc(-c3cccc(F)c3)nn2c(C)c1CCC(=O)N1CCC2(CC1)OCCO2 [1-(1,4-dioxa-8-azaspiro[4.5]decan-8-yl)-3-[2-(3-fluorophenyl)-5,7-dimethyl-6-pyrazolo[1,5-a]pyrimidinyl]-1-propanone] | > 50 µM
4 | O=C1C(=C2C(=O)c3ccccc3C2=O)Nc2ccccc21 [MLS000071738] | > 50 µM
5 | CC(C)Cn1c(N)c(C(=O)COC(=O)c2cc(-c3ccco3)nc3ccccc23)c(=O)n(C)c1=O [2-(2-furanyl)-4-quinolinecarboxylic acid [2-[4-amino-1-methyl-3-(2-methylpropyl)-2,6-dioxo-5-pyrimidinyl]-2-oxoethyl] ester] | 25.5 µM
6 | Cc1cc(C)n2c(SCC(=O)N3CCN(S(=O)(=O)c4ccc(Cl)cc4)CC3)nnc2n1 [1-[4-(4-chlorophenyl)sulfonyl-1-piperazinyl]-2-[(5,7-dimethyl-[1,2,4]triazolo[4,3-a]pyrimidin-3-yl)thio]ethanone] | 49.9 µM
7 | CC(=O)[C@@H]1[C@@H]2C(=O)N(c3ccc(F)c(Cl)c3)C(=O)[C@@H]2C2c3ccccc3C=CN21 (some centres not stated) [MLS000040594] | > 50 µM
8 | Cc1cccc(N2CCN(C(=O)Cc3c(C(=O)O)[nH]c4ccc(Cl)cc34)CC2)c1C [5-chloranyl-3-[2-[4-(2,3-dimethylphenyl)piperazin-1-yl]-2-oxidanylidene-ethyl]-1H-indole-2-carboxylic acid] | 46.8 µM
9 | N#Cc1c(N2CCCC2)nc(N)c2c(N)nc(N3CCCC3)cc12 [SMR000061605] | > 50 µM
10 | Cn1ncnc2c(=O)n(C)c(=O)nc1-2 | > 50 µM
11 | Cc1nc2c(C(=O)NCCC3=CCCCC3)c[nH]n2c(=O)c1Cl [6-chloro-N-(2-cyclohex-1-en-1-ylethyl)-7-hydroxy-5-methylpyrazolo[1,5-a]pyrimidine-3-carboxamide] | 49.9 µM
12 | O=C1C=C(NCc2ccc(Cl)c(Cl)c2)CC1 [3-[(3,4-dichlorobenzyl)amino]cyclopent-2-en-1-one] | > 50 µM
13 | CCCCNC(=O)c1c(N)n(CCCOC)c2nc3ccccc3nc12 [2-amino-N-butyl-1-(3-methoxypropyl)-3-pyrrolo[3,2-b]quinoxalinecarboxamide] | > 50 µM
14 | CCCCCNC(=O)c1ccc2c(=O)[nH]c3c(C(=O)NCC4CCCO4)sc(=S)n3c2c1 (configuration not stated) [5-oxo-N3-(2-oxolanylmethyl)-N8-pentyl-1-sulfanylidene-4H-thiazolo[3,4-a]quinazoline-3,8-dicarboxamide] | 36.7 µM
15 | CCOc1cc(/C=C(/C#N)c2ccc(F)cc2)ccc1OCc1ccc(C(=O)O)o1 [5-[[4-[(E)-2-cyano-2-(4-fluorophenyl)ethenyl]-2-ethoxyphenoxy]methyl]furan-2-carboxylic acid] | 41.8 µM
16 | N#Cc1c(N)sc(=S)c2c1CCN(Cc1ccccc1)C2 [3-Amino-7-benzyl-1-thioxo-5,6,7,8-tetrahydro-1H-thiopyrano[3,4-c]pyridine-4-carbonitrile] | > 50 µM
17 | [O-]/[N+](=C\c1ccncc1)c1ccccc1 | 46.6 µM
18 | CCCCn1c(NC(=O)c2ccccc2)c(C#N)c2nc3ccccc3nc21 [SMR000060333] | 32.4 µM
19 | COC(=O)c1ccccc1NC(=O)CN1C(=O)C2CCCN2c2ncc(Cl)cc21 (configuration not stated) [MLS000094302] | > 50 µM

Row | Compound | IC50
20 | O=C(OC1CCCCC1)c1ccc2c(c1)C1C=CCC1C(C(=O)O)N2 (configuration not stated) [SMR000019385] | 17.5 µM
21 | CCCCn1c(SCC(=O)c2ccc(OC)cc2OC)nc2cc(S(N)(=O)=O)ccc21 [1-butyl-2-[2-(2,4-dimethoxyphenyl)-2-oxidanylidene-ethyl]sulfanyl-benzimidazole-5-sulfonamide] | 42.1 µM
22 | CC(C)Sc1nc2sc3c(c2c2nnc(SCC(=O)NCc4ccco4)n12)CCCC3 [MLS000082957] | 22.7 µM
23 | COc1ccc(Cn2c(C)nc3c(c2=O)c2nc4ccccc4nc2n3Cc2ccco2)cc1 [MLS000079944] | 22 µM
24 | Nc1c(N2CCCC2)cc(Cl)c2nonc12 [(7-chloro-5-pyrrolidino-benzofurazan-4-yl)amine] | > 50 µM
25 | Nc1nc2c(s1)CCc1c-2cnn1-c1ccccc1 [MLS000085948] | > 50 µM
26 | Cc1ccc(C)n1-c1cccc(C(=O)O)c1 | 16.9 µM
27 | Cc1c(N=c2c(=O)c3ccccc3c2=O)c(=O)n(-c2ccccc2)n1C [MLS000105950] | > 50 µM
28 | CCCCCC#CCC#CCC#CCC#CCCCC(=O)O | 13.1 µM
29 | COc1ccc(Br)cc1C=c1sc2nc(-c3ccco3)nn2c1=O [5-[(5-bromanyl-2-methoxy-phenyl)methylidene]-2-(furan-2-yl)-[1,3]thiazolo[3,2-b][1,2,4]triazol-6-one] | 17.2 µM
30 | O=C(Nc1ccccc1)c1ccc2nc(-c3ccco3)c(-c3ccco3)nc2c1 [2,3-di-2-furyl-N-phenyl-6-quinoxalinecarboxamide] | 32 µM
31 | COc1ccc2noc3c2c1C(=O)c1ccccc1-3 [MLS000106874] | 14.3 µM
32 | N#Cc1c(NC(=O)c2ccc(Br)o2)n(-c2ccccc2)c2nc3ccccc3nc12 [5-bromanyl-N-(3-cyano-1-phenyl-pyrrolo[3,2-b]quinoxalin-2-yl)furan-2-carboxamide] | > 50 µM
33 | O=C(Nc1ccc2nc(-c3ccco3)c(-c3ccco3)nc2c1)N1CCCCCC1 | 24.1 µM
34 | CCn1nc(-c2ccccc2)nc2c(=O)n(C)c(=O)nc1-2 [1-Ethyl-6-methyl-3-phenyl-1H-pyrimido[5,4-e][1,2,4]triazine-5,7-dione] | > 50 µM
35 | COc1ccc(-c2cc3nc(C4CCN(C(=O)OC(C)(C)C)CC4)c(C(=O)O)cn3n2)cc1 [2-(4-methoxyphenyl)-5-[1-[(2-methylpropan-2-yl)oxy-oxomethyl]-4-piperidinyl]-6-pyrazolo[1,5-a]pyrimidinecarboxylic acid] | 36.3 µM
36 | O=C(NC1(O)C(=O)c2ccccc2C1=O)c1ccccc1 [N-(2-hydroxy-1,3-dioxo-2-indenyl)benzamide] | > 50 µM
37 | FC(F)(F)c1ccc(N2CCOCC2)c(Nc2nc3ccccc3n3cnnc23)c1 [MLS000093276] | > 50 µM
38 | COc1cc(/C=C(/C#N)c2ccc(F)cc2)ccc1OCc1ccc(C(=O)O)o1 [5-({4-[2-cyano-2-(4-fluorophenyl)vinyl]-2-methoxyphenoxy}methyl)-2-furoic acid] | > 50 µM

Row | Compound | IC50
39 | Cc1cccc(NC(=O)c2cc(NC(=O)C3CCCCC3C(=O)O)ccc2N2CCCCC2)c1 (configuration not stated) [2-({[3-{[(3-methylphenyl)amino]carbonyl}-4-(1-piperidinyl)phenyl]amino}carbonyl)cyclohexanecarboxylic acid] | > 50 µM
40 | O=C1C=Cc2ccccc2C1=O [1,2-dihydronaphthalene-1,2-dione] | 22.5 µM
41 | O=C(c1cccs1)c1no[n+]([O-])c1C(=O)c1cccs1 [(5-oxidanidyl-4-thiophen-2-ylcarbonyl-1,2,5-oxadiazol-5-ium-3-yl)-thiophen-2-yl-methanone] | 6.96 µM
42 | Cc1ccc(-c2csc(NC(=O)c3ccno3)n2)cc1 [MLS000081820] | 49.8 µM
43 | CCn1nc(-c2cccs2)nc2c(=O)n(C)c(=O)nc1-2 [1-ethyl-6-methyl-3-thiophen-2-yl-pyrimido[5,4-e][1,2,4]triazine-5,7-dione] | > 50 µM
44 | CC1=C(/C=C/C(C)=C/C=C/C(C)=C/C(=O)O)C(C)(C)CCC1 [ALL-TRANS-RETINOIC ACID] | 48.6 µM
45 | [O-]/[N+](=C\c1ccc(OC(F)F)cc1)c1ccccc1 [1-[4-(difluoromethoxy)phenyl]-N-phenylmethanimine oxide] | > 50 µM
46 | CCCSc1nnc(NC(=O)c2sc3nc(-c4cccs4)ccc3c2N)s1 [3-amino-N-(5-propylsulfanyl-1,3,4-thiadiazol-2-yl)-6-thiophen-2-ylthieno[2,3-b]pyridine-2-carboxamide] | 25.7 µM
47 | CCOc1ccc2noc3c2c1C(=O)c1ccccc1-3 [MLS000106837] | 30.2 µM
48 | COCCCn1c(N)c(C(=O)NCCC(C)C)c2nc3ccccc3nc21 [MLS000041744] | > 50 µM
49 | CCOC(=O)c1ccc2c(c1)C1C=CCC1C(C(=O)O)N2 (configuration not stated) [MLS-0025126.0001] | 32.7 µM
50 | Cc1ccc(/C=C/C2=Cc3c(sc(NC(=O)CSc4nnc(N)[nH]4)c3C#N)C(C)(C)C2)o1 [2-[(5-azanyl-1H-1,2,4-triazol-3-yl)sulfanyl]-N-[3-cyano-7,7-dimethyl-5-[(E)-2-(5-methylfuran-2-yl)ethenyl]-6H-1-benzothiophen-2-yl]ethanamide] | 19.8 µM
51 | CCOc1ccc(-c2cc3nc(C4CCN(C(=O)OC(C)(C)C)CC4)c(C(=O)O)cn3n2)cc1 [2-(4-ethoxyphenyl)-5-[1-[(2-methylpropan-2-yl)oxy-oxomethyl]-4-piperidinyl]-6-pyrazolo[1,5-a]pyrimidinecarboxylic acid] | 27.7 µM
52 | CC(C)(C)N1C(=O)Cc2c1nc(N)c1c(N)nc(N3CCCCC3CO)c(C#N)c21 (configuration not stated) [5,6-bis(azanyl)-3-tert-butyl-8-[2-(hydroxymethyl)piperidin-1-yl]-2-oxidanylidene-1H-pyrrolo[2,3-c][2,7]naphthyridine-9-carbonitrile] | > 50 µM
53 | [O-]/[N+](=C/c1ccc(F)cc1)c1ccccc1 [(E)-(4-fluorobenzylidene)(phenyl)azane oxide] | > 50 µM
54 | CCn1c(SCC(=O)Nc2ccc3c(c2)c2ccccc2n3CC)nnc1-c1ccco1 [MLS000050867] | 21.1 µM
55 | COc1ccc(-n2c(NC(=O)c3ccco3)c(C#N)c3nc4ccccc4nc32)cc1 [MLS000079925] | > 50 µM
56 | Cc1cc(NC(=O)c2ccc(S(=O)(=O)N3CCCC3)cc2)nc2c1c(=O)oc1ccccc12 [MLS000091355] | 26.1 µM
57 | CCc1ccc(NC(=O)CSc2nc3ccccc3c(=O)n2CCN2CCOCC2)cc1 [MLS000095236] | > 50 µM

From BindingDB's records for doi:10.7270/Q20863PV (University of Pittsburgh, 2006)
